US10077261B2, “Imidazolin-5-one derivative useful as FASN inhibitors for the treatment of cancer” (Janssen Pharmaceutica NV, priority 2012, dated 2018)

Key:
[1] = system: A2780 ovarian cells; experiment: A2780 ovarian cell proliferation assay in lipid reduced medium, without palmitate (MTT); type: cell-based; settings: Homo sapiens, A2780, 96 h; read-out: pIC50 A2780 Ovarian Cell, Without Palmitate (converted)
[2] = system: A2780 ovarian cells; experiment: A2780 ovarian cell proliferation assay in lipid reduced medium, with palmitate (MTT); type: cell-based; settings: Homo sapiens, A2780, 96 h; read-out: pIC50 A2780 Ovarian Cell, With Palmitate (converted)
Procedure, shortened: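 In this palmitate-supplemented format, compound dilutions (30 μM down to 0.01 μM) are added to cells in lipid-reduced serum with 25 μM palmitate, 0.2% fatty-acid-free BSA and 0.25% ethanol. After four days (96 h) MTT absorbance at 544 nm is recorded and fitted by minimum sum of squares.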

[3] = biological target: Fatty Acid Synthase Keto-reductase Domain (FASN KR) (Homo sapiens, UniProt P49327); experiment: Fatty Acid Synthase keto-reductase domain (FASN KR) inhibition, NADPH oxidation at 340 nm
Procedure: After 20 minutes incubation at room temperature the plate was measured again (T2).
The decrease in absorbance was calculated as (Absorbance before incubation T1)−(Absorbance following incubation T2).
A plot of Controlmin versus test compound concentration was fitted to a 4-parameter logistic curve using a non-linear least squares regression method.

[4] = system: PC-3M-Luc-C6 prostate cells; experiment: In vitro PC-3M-Luc-C6 prostate cell proliferation assay in lipid reduced medium; type: cell-based; settings: 96 h, read-out: pIC50 PC-3M-Luc-C6 prostate cell (converted)
[5] = biological target: T1, hFASN enzyme (full length) (Homo sapiens, UniProt P49327); experiment: Fatty Acid Synthase (FASN) inhibition scintillation proximity assay; type: biochemical; settings: for inhibition at 10 µM: read-out: Human FASN % inhibition @ 10 μM, 10 μM test compound; for IC50: read-out: Human FASN pIC50 (converted)
T1 construct: 10 μL hFASN enzyme (full length, 300 ng, purified in house); made in house
Procedure, shortened: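 Scintillation proximity format: in-house full-length enzyme, 300 ng per well, pH 7.5 phosphate/DTT buffer, ³H-acetyl-CoA and malonyl-CoA. Emission counted on LEADseeker at 610 nm at least 24 h after stopping.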

[6] = system: LNCaP-Vancouver prostate cells; experiment: In vitro LNCaP Vancouver prostate cell proliferation assay in lipid reduced medium; type: cell-based; settings: read-out: pIC50 LNCaP_Vancouver prostate cell (converted)

Chain of Fatty Acid Synthase Keto-reductase Domain (FASN KR) (P49327 whole entry, the tested form may be a part): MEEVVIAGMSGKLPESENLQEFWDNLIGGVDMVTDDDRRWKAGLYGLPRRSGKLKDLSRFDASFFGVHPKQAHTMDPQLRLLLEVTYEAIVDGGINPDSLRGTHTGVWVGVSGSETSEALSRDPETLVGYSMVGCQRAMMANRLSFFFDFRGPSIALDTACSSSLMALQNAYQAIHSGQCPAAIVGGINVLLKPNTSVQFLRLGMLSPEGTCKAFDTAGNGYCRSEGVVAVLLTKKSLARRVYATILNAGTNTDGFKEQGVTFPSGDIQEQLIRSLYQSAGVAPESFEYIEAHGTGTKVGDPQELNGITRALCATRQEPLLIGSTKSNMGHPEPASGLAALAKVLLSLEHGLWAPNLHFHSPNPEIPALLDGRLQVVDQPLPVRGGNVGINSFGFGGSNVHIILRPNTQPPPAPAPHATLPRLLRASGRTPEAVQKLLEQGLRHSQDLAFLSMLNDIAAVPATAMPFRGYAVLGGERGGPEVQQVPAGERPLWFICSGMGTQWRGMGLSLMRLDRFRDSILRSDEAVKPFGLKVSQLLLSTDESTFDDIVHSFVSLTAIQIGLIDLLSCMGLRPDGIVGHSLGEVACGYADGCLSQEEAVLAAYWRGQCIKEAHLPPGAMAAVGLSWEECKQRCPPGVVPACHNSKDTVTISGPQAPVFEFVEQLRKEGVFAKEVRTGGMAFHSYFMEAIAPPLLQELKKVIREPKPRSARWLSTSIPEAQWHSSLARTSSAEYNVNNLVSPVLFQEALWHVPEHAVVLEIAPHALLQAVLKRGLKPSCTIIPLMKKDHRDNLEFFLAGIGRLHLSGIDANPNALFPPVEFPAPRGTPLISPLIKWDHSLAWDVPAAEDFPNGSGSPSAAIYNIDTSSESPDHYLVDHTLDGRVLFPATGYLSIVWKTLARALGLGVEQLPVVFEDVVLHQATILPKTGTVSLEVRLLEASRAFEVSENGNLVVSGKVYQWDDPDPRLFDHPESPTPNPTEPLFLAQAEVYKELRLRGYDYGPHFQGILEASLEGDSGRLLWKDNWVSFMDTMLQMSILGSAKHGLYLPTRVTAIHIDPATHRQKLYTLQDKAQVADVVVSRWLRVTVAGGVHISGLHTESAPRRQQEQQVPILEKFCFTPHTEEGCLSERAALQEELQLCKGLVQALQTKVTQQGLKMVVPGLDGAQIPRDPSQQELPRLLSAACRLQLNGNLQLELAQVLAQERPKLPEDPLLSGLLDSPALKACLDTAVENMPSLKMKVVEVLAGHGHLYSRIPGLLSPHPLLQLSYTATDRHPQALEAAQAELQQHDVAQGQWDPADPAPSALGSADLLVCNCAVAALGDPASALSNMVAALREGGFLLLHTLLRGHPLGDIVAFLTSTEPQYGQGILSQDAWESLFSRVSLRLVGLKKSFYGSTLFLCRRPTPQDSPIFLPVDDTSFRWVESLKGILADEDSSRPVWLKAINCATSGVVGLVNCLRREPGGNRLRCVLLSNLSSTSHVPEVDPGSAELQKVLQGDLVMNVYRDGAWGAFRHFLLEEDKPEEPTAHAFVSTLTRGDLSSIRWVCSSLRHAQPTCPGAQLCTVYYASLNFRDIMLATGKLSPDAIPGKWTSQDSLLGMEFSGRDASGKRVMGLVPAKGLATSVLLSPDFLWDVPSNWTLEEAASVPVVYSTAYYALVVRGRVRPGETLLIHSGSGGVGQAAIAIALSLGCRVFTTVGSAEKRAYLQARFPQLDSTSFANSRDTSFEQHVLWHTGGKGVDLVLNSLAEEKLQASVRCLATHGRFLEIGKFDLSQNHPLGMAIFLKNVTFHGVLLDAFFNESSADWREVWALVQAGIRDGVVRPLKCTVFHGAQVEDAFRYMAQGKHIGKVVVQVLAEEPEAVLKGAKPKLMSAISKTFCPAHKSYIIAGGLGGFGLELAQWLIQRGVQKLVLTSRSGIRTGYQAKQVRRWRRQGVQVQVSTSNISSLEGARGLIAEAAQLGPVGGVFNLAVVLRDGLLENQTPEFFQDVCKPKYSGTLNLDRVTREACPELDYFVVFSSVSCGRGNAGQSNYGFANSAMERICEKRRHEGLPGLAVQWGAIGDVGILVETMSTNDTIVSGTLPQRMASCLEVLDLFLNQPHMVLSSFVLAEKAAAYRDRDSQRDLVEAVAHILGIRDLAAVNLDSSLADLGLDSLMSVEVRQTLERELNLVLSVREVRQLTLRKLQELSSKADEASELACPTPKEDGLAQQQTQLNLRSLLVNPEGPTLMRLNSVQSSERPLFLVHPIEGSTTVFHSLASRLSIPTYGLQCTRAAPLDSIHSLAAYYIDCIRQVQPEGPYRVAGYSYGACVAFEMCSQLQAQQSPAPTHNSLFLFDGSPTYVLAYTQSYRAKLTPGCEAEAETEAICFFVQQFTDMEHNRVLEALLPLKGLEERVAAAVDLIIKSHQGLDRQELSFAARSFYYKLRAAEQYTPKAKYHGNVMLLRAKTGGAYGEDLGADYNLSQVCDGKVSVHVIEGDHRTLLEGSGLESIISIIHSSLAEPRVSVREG
T1 sequence (P49327 whole entry): as the sequence (P49327 whole entry, the tested form may be a part) above

Row | SMILES | IC50 [1] [nM] | IC50 [2] [nM] | IC50 [3] [nM] | IC50 [4] [nM] | inhibition at 10 µM [5] [%] | IC50 [5] [nM] | IC50 [6] [nM]
1 | Cc1cc(-c2ccc3c(cnn3C)c2)ccc1C1=NC2(CC2)C(=O)N1CC1CN(C(=O)C2CCCO2)C1 (stereo in doubt) [compound 206, (S)-5-(2-methyl-4-(1-methyl-1H-indazol-5-yl)phenyl)-6-((1-(tetrahydro-furan-2-carbonyl)azetidin-3-yl)methyl)-4,6-diazaspiro[2.4]hept-4-en-7-one] | ~10.5 | > 10000 | 75.9 | 19.1 | 101 | 37.2 | 100
2 | O=C(C1CC1)N1CC(CN2C(=O)C3(CC3)N=C2c2ccc(-c3cccc4[nH]ncc34)cc2)C1 [compound 300, 5-(4-(1H-indazol-4-yl)phenyl)-6-((1-(cyclopropanecarbonyl)azetidin-3-yl)methyl)-4,6-diazaspiro[2.4]hept-4-en-7-one] | 74.1 | > 10000 | 126 | 123 | 102 | 57.5 | 1910
3 | O=C(C1CC1)N1CC[C@@H](CN2C(=O)C3(CC3)N=C2c2ccc(-c3ccc4occc4c3)cc2F)C1 [compound 240, (R)-5-(4-(benzofuran-5-yl)-2-fluorophenyl)-6-((1-(cyclopropanecarbonyl)pyrrolidin-3-yl)methyl)-4,6-diazaspiro[2.4]hept-4-en-7-one] | 200 | > 6170 | 26.3 | ~166 | 101 | 12.3 | 537
4 | O=C(N1CC(CN2C(=O)C3(CC3)N=C2c2ccc(-c3ccc4cc(F)ccc4c3)cc2F)C1)C1(O)CC1 [compound 365, 5-(2-fluoro-4-(6-fluoronaphthalen-2-yl)phenyl)-6-((1-(1-hydroxycyclopropanecarbonyl)azetidin-3-yl)methyl)-4,6-diazaspiro[2.4]hept-4-en-7-one] | 6.46 | ~10000 | 53.7 | 7.59 | 97 | 23.4 | 56.2
5 | Cc1cc(-c2ccc3[nH]ccc3c2)ccc1C1=NC2(CC2)C(=O)N1CC1CN(C(=O)C2CC2)C1 [compound 291, 5-(4-(1H-indol-5-yl)-2-methylphenyl)-6-((1-(cyclopropanecarbonyl)azetidin-3-yl)methyl)-4,6-diazaspiro[2.4]hept-4-en-7-one] | 45.7 | > 10000 | 38 | ~42.7 | 108 | 27.5 | 295
6 | O=C(C1CC1)N1CC(CN2C(=O)C3(CC3)N=C2c2ccc(-c3ccc4cc(Cl)cnc4c3)cc2)C1 [compound 339, 5-(4-(3-chloroquinolin-7-yl)phenyl)-6-((1-(cyclopropanecarbonyl)azetidin-3-yl)methyl)-4,6-diazaspiro[2.4]hept-4-en-7-one] | 28.8 | ~2820 | 47.9 | 31.6 | 95 | 30.9 | 324
7 | COc1cccc2ccc(-c3ccc(C4=NC5(CC5)C(=O)N4CC4CN(C(=O)C5CC5)C4)c(F)c3)cc12 [compound 380, 6-((1-(cyclopropanecarbonyl)azetidin-3-yl)methyl)-5-(2-fluoro-4-(8-methoxynaphthalen-2-yl)phenyl)-4,6-diazaspiro[2.4]hept-4-en-7-one] | 132 | > 10000 | 95.5 | 309 | 100 | 66.1 | 1150

The next lines start with the values.

Row | IC50 [1] [nM] | IC50 [2] [nM] | IC50 [3] [nM] | IC50 [4] [nM] | inhibition at 10 µM [5] [%] | IC50 [5] [nM] | IC50 [6] [nM] | SMILES
8 | 933 | > 10000 | 1510 | 794 | 89 | 363 | 5250 | O=C(C1CC1)N1CC(CN2C(=O)C3(CCOC3)N=C2c2ccc(-c3ccc4cccnc4c3)cc2)C1 (stereo not drawn) [compound 714, 3-{[1-(Cycloprppylcarbonyl)azetidin-3-yl]methyl}-2-(4-quinolin-7-ylphenyl)-7-oxa-1,3-diazaspiro[4.4]non-1-en-4-one]
9 | 1290 | > 10000 | 550 | 1350 | 90 | 316 | 2570 | O=C(C1CC1)N1CC[C@@H](CN2C(=O)C3(CC3)N=C2c2ccc(-c3ccc4[nH]ccc4c3)s2)C1 [compound 423, 6-{[(3R)-1-(Cyclopropylcarbonyl)pyrrolidin-3-yl]methyl}-5-[5-(1H-indol-5-yl)thiophen-2-yl]-4,6-diazaspiro[2.4]hept-4-en-7-one]
10 | ~2.51 | > 10000 | 35.5 | 1.91 | 98 | 22.9 | 10.5 | O=C(N1CC[C@@H](CN2C(=O)C3(CC3)N=C2c2ccc(-c3ccc4cc(F)ccc4c3)cc2F)C1)C1(O)CC1 [compound 381, (R)-5-(2-fluoro-4-(6-fluoronaphthalen-2-yl)phenyl)-6-((1-(1-hydroxycyclopropanecarbonyl)pyrrolidin-3-yl)methyl)-4,6-diazaspiro[2.4]hept-4-en-7-one]
11 | 229 | > 10000 | 36.3 | 120 | 105 | 30.9 | 617 | O=C(C1CC1)N1CC[C@@H](CN2C(=O)C3(CCCC3)N=C2c2ccc(-c3ccc4sccc4c3)cc2F)C1 [compound 876]
12 | 302 | > 10000 | 501 | 575 | 88 | 214 | 1550 | Cc1cc(-c2ccc3c(cnn3C)c2)ccc1C1=NC2(CC2)C(=O)N1CC1CN(C(=O)N(C)C)C1 [compound 488, N,N-Dimethyl-3-({5-[2-methyl-4-(1-methyl-1H-indazol-5-yl)phenyl]-7-oxo-4,6-diazaspiro[2.4]hept-4-en-6-yl}methyl)azetidine-1-carboxamide]
13 | 1230 | > 10000 | 1450 | 1120 | 97 | 209 | 2400 | Cn1nc(Cl)c2ccc(-c3ccc(C4=NC5(CC5)C(=O)N4CC4CN(C(=O)C5CC5)C4)c(F)c3)cc21 [compound 606, 5-[4-(3-Chloro-1-methyl-1H-indazol-6-yl)-2-fluorophenyl]-6-{[1-(cyclopropylcarbonyl)azetidin-3-yl]methyl}-4,6-diazaspiro[2.4]hept-4-en-7-one]
14 | 42.7 | > 10000 | 132 | ~79.4 | 95 | 58.9 | 191 | O=C(C1CC1)N1CC[C@@H](CN2C(=O)C3(CCOCC3)N=C2c2ccc(-c3ccc4cccnc4c3)cc2)C1 [compound 661, 3-{[(3R)-1-(Cyclopropylcarbonyl)pyrrolidin-3-yl]methyl}-2-(4-quinolin-7-ylphenyl)-8-oxa-1,3-diazaspiro[4.5]dec-1-en-4-one]
15 | 2510 | > 10000 | 871 | 1620 | 91 | 245 | ~1700 | Cc1cc(C2=NC3(CC3)C(=O)N2CC2CN(C(=O)C3CC3)C2)ccc1-c1ccc2sccc2c1 [compound 392, 5-[4-(1-Benzothiophen-5-yl)-3-methylphenyl]-6-{[1-(cyclopropylcarbonyl)azetidin-3-yl]methyl}-4,6-diazaspiro[2.4]hept-4-en-7-one]
